Reference: US8202865B2, “Oxadiazole derivatives” (Merck Serono SA, priority 2007, dated 2012)
Counter-ions that a name gives are not always drawn.

The molecules below were run against T1, S1P1 (Homo sapiens, UniProt P21453) (assay: 35S-GTPγS binding, S1P1 membranes). Conditions: membranes from CHO cells expressing S1P1; 60 min 30° C.
T1 construct: expressed in transfected cells; host or cells: CHO cells (membranes)
T1 sequence (P21453 whole entry, species assumed): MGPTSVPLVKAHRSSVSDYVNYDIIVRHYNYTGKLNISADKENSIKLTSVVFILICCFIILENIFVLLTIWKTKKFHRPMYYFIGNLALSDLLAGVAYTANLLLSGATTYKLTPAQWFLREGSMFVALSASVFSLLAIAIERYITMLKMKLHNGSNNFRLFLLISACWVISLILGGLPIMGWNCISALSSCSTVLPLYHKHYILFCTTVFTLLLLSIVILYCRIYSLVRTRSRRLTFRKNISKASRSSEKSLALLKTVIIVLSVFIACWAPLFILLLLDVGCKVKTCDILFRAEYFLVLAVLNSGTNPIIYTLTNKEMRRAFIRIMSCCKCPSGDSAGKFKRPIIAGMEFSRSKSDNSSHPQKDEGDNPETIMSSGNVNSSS
Format: biochemical
In short: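 CHO-cell membranes expressing S1P1 or S1P3 (1-10 μg) incubated with compounds in 20 mM HEPES pH 7.4, 10 mM MgCl2, 140 mM NaCl, saponin, 0.2% BSA, 1.7 μM GDP and [35S]-GTPγS (20 μl of 1.5 nM added), 60 min at 30° C. Bound radioactivity expressed as % of S1P activation.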
Work on `COCc1cc(-c2nc(-c3ccc(Cl)c(C(=O)O)c3)no2)ccc1-c1ccccc1C` [Example 108, 2-chloro-5-{5-[2-(methoxymethyl)-2′-methylbiphenyl-4-yl]-1,2,4-oxadiazol-3-yl}benzoic acid] yielded an EC50 of 163 nM. Work on `COCc1cc(-c2nc(-c3ccc(C(=O)NC4(C(=O)O)CC4)c(F)c3)no2)ccc1-c1ccccc1C` [Example 120, 1-[(2-fluoro-4-{5-[2-(methoxymethyl)-2′-methylbiphenyl-4-yl]-1,2,4-oxadiazol-3-yl}benzoyl)amino]cyclopropanecarboxylic acid] yielded an EC50 of 58 nM. For `COCc1cc(-c2nc(-c3ccc(C(=O)NCCC(=O)OC)c(F)c3)no2)ccc1-c1ccccc1C` [Example 117, Methyl N-(2-fluoro-4-{5-[2-(methoxymethyl)-2′-methylbiphenyl-4-yl]-1,2,4-oxadiazol-3-yl}benzoyl)-beta-alaninate], the EC50 was 9 nM. In the case of `COCCNC(=O)c1ccc(-c2noc(-c3ccc(-c4ccccc4C)c(COC)c3)n2)cc1F` [Example 172, 2-fluoro-N-(2-methoxyethyl)-4-{5-[2-(methoxymethyl)-2′-methylbiphenyl-4-yl]-1,2,4-oxadiazol-3-yl}benzamide], the EC50 is reported as 33 nM. `COCCOCc1cccc(-c2noc(-c3ccc(-c4ccccc4C)c(COC)c3)n2)c1` [Example 192] gave an EC50 of 6.1 nM. `Cc1cc(-c2nc(-c3ccc(C(=O)O)c(F)c3)no2)ccc1-c1ccccc1-c1ccccc1` [Example 31, 2-fluoro-4-[5-(2-methyl-1,1′:2′,1″-terphenyl-4-yl)-1,2,4-oxadiazol-3-yl]benzoic acid] was tested, and the EC50 was 2400 nM. `COCc1cc(-c2nc(-c3cc(Cl)c(C(=O)O)cc3F)no2)ccc1-c1ccccc1C` [Example 109, 2-chloro-5-fluoro-4-{5-[2-(methoxymethyl)-2′-methylbiphenyl-4-yl]-1,2,4-oxadiazol-3-yl}benzoic acid] gave an EC50 of 90 nM. For `Cc1cc(-c2nc(-c3ccc(C(=O)O)c(F)c3)no2)ccc1-c1c(C)noc1C` [Example 25, 4-{5-[4-(3,5-dimethylisoxazol-4-yl)-3-methylphenyl]-1,2,4-oxadiazol-3-yl}-2-fluorobenzoic acid], the EC50 was 14200 nM. Work on `CC1CCCCN1c1ccc(-c2nc(-c3ccc(F)c(C(=O)O)c3)no2)cc1C(F)(F)F` (stereo not shown) [Example 33, 2-fluoro-5-{5-[4-(2-methylpiperidin-1-yl)-3-(trifluoromethyl)phenyl]-1,2,4-oxadiazol-3-yl}benzoic acid] yielded an EC50 of 180 nM. In the case of `COCc1cc(-c2nc(-c3ccc(C(=O)N(C)CC(=O)OC)c(F)c3)no2)ccc1-c1ccccc1C` [Example 116, methyl N-(2-fluoro-4-{5-[2-(methoxymethyl)-2′-methylbiphenyl-4-yl]-1,2,4-oxadiazol-3-yl}benzoyl)-N-methylglycinate], the EC50 is reported as 240 nM. `CC(C)COc1ccc(-c2nc(-c3ccc(C(=O)O)c(F)c3)no2)cc1NS(C)(=O)=O` [Example 64, 2-fluoro-4-(5-{4-isobutoxy-3-[(methylsulfonyl)amino]phenyl}-1,2,4-oxadiazol-3-yl)benzoic acid] was tested, and the EC50 was 4720 nM. With `COCc1cc(-c2nc(-c3cccc(CNCCC(=O)OC)c3)no2)ccc1-c1ccccc1C` [Example 145, Methyl N-(3-{5-[2-(methoxymethyl)-2′-methylbiphenyl-4-yl]-1,2,4-oxadiazol-3-yl}benzyl)-beta-alaninate] the EC50 was 2.3 nM. In the case of `CCOC(=O)C1(NC(=O)c2cccc(-c3noc(-c4ccc(-c5ccccc5C)c(COC)c4)n3)c2)CC1` [Example 131, Ethyl 1-[(3-{5-[2-(methoxymethyl)-2′-methylbiphenyl-4-yl]-1,2,4-oxadiazol-3-yl}benzoyl)amino]cyclopropanecarboxylate], the EC50 is reported as 35 nM. In the case of `COCC#Cc1cc(-c2nc(-c3ccc(C(=O)O)c(F)c3)no2)ccc1-c1ccccc1C` [Example 96, 2-fluoro-4-{5-[2-(3-methoxyprop-1-yn-1-yl)-2′-methylbiphenyl-4-yl]-1,2,4-oxadiazol-3-yl}benzoic acid], the EC50 is reported as 462 nM. In the case of `COCc1cc(-c2nc(-c3ccc(F)c(CN(C)CCC(=O)O)c3)no2)ccc1-c1ccccc1C` [Example 154, N-(2-fluoro-5-{5-[2-(methoxymethyl)-2′-methylbiphenyl-4-yl]-1,2,4-oxadiazol-3-yl}benzyl)-N-methyl-beta-alanine, Hydrochloride salt], the EC50 is reported as 1.2 nM. With `COCc1cc(-c2nc(-c3ccc(C(=O)O)c(F)c3)no2)ccc1-c1ccccc1Cl` [Example 98, 4-{5-[2′-chloro-2-(methoxymethyl)biphenyl-4-yl]-1,2,4-oxadiazol-3-yl}-2-fluorobenzoic acid] the EC50 was 67 nM. With `Cc1ccccc1-c1ccc(-c2nc(-c3ccc(S(N)(=O)=O)cc3)no2)cc1C` [Example 40, 4-[5-(2,2′-dimethylbiphenyl-4-yl)-1,2,4-oxadiazol-3-yl]benzenesulfonamide] the EC50 was 10 nM. Work on `O=C(O)c1ccc(-c2noc(-c3ccc([N+](=O)[O-])c(N4CCCCC4)c3)n2)cc1F` [Example 21, 2-fluoro-4-[5-(4-nitro-3-piperidin-1-ylphenyl)-1,2,4-oxadiazol-3-yl]benzoic acid] yielded an EC50 of 9740 nM. For `O=C(O)c1ccc(-c2noc(-c3ccc(N4CCOCC4)c(C(F)(F)F)c3)n2)cc1F` [Example 17, 2-fluoro-4-{5-[4-morpholin-4-yl-3-(trifluoromethyl)phenyl]-1,2,4-oxadiazol-3-yl}benzoic acid], the EC50 was 3450 nM. `Cc1cc(-c2nc(-c3ccc(C(=O)O)c(F)c3)no2)ccc1N1CCCCC1` [Example 16, 2-fluoro-4-[5-(3-methyl-4-piperidin-1-ylphenyl)-1,2,4-oxadiazol-3-yl]benzoic acid] was tested, and the EC50 was 2060 nM. With `COc1cc(-c2noc(-c3ccc(-c4ccccc4C)c(C)c3)n2)ccc1C(=O)O` [Example 46, 4-[5-(2,2′-dimethylbiphenyl-4-yl)-1,2,4-oxadiazol-3-yl]-2-methoxybenzoic acid] the EC50 was 2270 nM. For `Cc1ccccc1-c1ccc(-c2nc(-c3ccc(C(=O)O)cc3)no2)cc1C` [Example 42, 4-[5-(2,2′-dimethylbiphenyl-4-yl)-1,2,4-oxadiazol-3-yl]benzoic acid], the EC50 was 1690 nM.
